What was measured:
[1] = molecular target: T1, Polθ ATPase (Homo sapiens, UniProt O75417); experiment: Polθ ATPase activity assay (ADP-Glo Kinase Assay kit); assay type: biochemical; settings: truncated POLQ-N protein (aa 1-894) 1 nM, 50 nM ssDNA, 50 µM ATP
T1 construct: purified truncated POLQ-N protein (aa 1-894, N-terminal 6-His tag); 6-His (N)
Protocol: The inhibitory efficiency of the compounds of formula (I) against Polθ ATPase activity was determined using the ADP-Glo Kinase Assay kit (Promega, V9101). […] The starting (final) concentration was 100 nM, followed by a 3-fold serial dilution for a total of 10 concentration points in duplicate (n=2). 5 μL of purified […], N-terminal 6-His tag) was added to each well. After centrifugation at 1000 rpm for 1 minute, the plate was incubated at 25°C for 10 minutes. 5 μL of substrate reaction solution (containing ATP & ssDNA) was added to each well, and the reaction was carried out at 25°C for 60 minutes. 5 μL of ADP-Glo Reagent was added to each well. After centrifugation at 1000 rpm for 1 minute, the plate was incubated at 25°C for 40 minutes. 10 μL of detection solution was added to each well. After centrifugation at 1000 rpm for 1 minute, the plate was incubated at 25°C for 40 minutes. Luminescence signals were recorded using a microplate reader (BMG, PHERAstar FSX). The final reaction system contained 1 nM of POLQ-N enzyme; 50 nM of ssDNA ([NT]); 50 μM of ATP; and 1% DMSO. The inhibition percentage (%) of the compound at each concentration was calculated using the RFU values normalized against the control wells within each assay plate. Table 1: Inhibitory activity of compounds against Polθ ATPase

[2] = test system: Theta-mediated end joining (TMEJ) process in HEK293T cells; experiment: TMEJ reporter assay (NanoGlo luciferase); assay type: cell-based; settings: Homo sapiens, HEK-293T, HEK293T cells electroporated with TMEJ substrate, 24 hours
Protocol: The inhibitory effect of the compounds on the Theta-mediated end joining (TMEJ) process was evaluated.
(1) HEK293T cells were cultured in DMEM supplemented with 10% heat-inactivated fetal bovine serum (FBS) and 1% penicillin-streptomycin (PS). (2) Prior to startup, the Neon transfection system was disinfected, and E2 and R buffers were equilibrated to room temperature. (3) Culture medium without antibiotics was pre-warmed. (4) Cells in the flask reaching 80-90% confluency were trypsinized, neutralized with culture medium, centrifuged, and counted. (5) For transfection using a 100 µL electroporation tip, 2 × 10^6 cells were taken, washed once with DPBS (without Mg^2+ and Ca^2+), centrifuged at 1000 rpm for 5 min, and the supernatant was discarded. The number of cells and volume may be increased as required. (6) The Neon system was set up; a Neon tube was inserted into the Neon pipette and E2 buffer was added. (7) 10 µg of TMEJ substrate was added to 100 µL of R solution; the volume may be increased as required. (8) Cells were resuspended in DNA buffer, and electroporation was initiated according to the following parameters:
(9) The cells were loaded into antibiotic-free culture medium and mixed gently. (10) Steps (8)-(9) were repeated as necessary, and cells were seeded into 384-well plates at a density of 40,000 cells/well in 40 µL of culture medium. (11) The plates were incubated in a humidified CO2 incubator at 37°C for 24 hours. (12) NanoGlo reagent was warmed to room temperature, and NanoGlo buffer was mixed with the substrate at a ratio of 50:1. (13) The cell culture plates were equilibrated at room temperature for 10 minutes. (14) 40 µL of NanoGlo substrate buffer was added to each well, followed by shaking at 300 rpm for 3 minutes protected from light. (15) Signals were read via a BMG PHERAstar FSX.

[3] = Pharmacokinetic study in rats; assay type: in vivo; settings: rat, plasma; male Wistar-Han rats, dose 30 mg/kg; route not stated in the table (oral gavage vehicle given)
Protocol: • 1. Experimental objective: To test the pharmacokinetics of the compounds in in vivo experiments using Wistar-Han rats. • 2. Experimental instruments and materials:
Animal: Wistar-Han rats (male)
Oral gavage: 1% methylcellulose aqueous solution.
Six male rats were used. On the evening prior to administration, the animals were fasted, with free access to water. During the experimental period, […] had free access to food and water. The animals were administered either by intravenous injection or intragastric gavage, after which the status of the animals was observed and any abnormal manifestations were recorded. Blood was collected via jugular vein puncture at 0.0833, 0.25, 1, 2, 4, 8, and 24 hours following intravenous administration; and at 0.25, 0.5, 1, 2, 4, 6, 8, and 24 hours following intragastric gavage. […]
A standard curve was established using the internal standard method, with the theoretical concentrations of the standard curve as the abscissa and the peak area ratio (peak area of test compound / peak area of internal standard) as the ordinate. […] Unknown samples were calculated via the standard curve. Pharmacokinetic parameters were calculated using the non-compartmental analysis (NCA) model of WinNonlin 8.2 software and presented in the report. […]

T1 sequence (O75417 1-894): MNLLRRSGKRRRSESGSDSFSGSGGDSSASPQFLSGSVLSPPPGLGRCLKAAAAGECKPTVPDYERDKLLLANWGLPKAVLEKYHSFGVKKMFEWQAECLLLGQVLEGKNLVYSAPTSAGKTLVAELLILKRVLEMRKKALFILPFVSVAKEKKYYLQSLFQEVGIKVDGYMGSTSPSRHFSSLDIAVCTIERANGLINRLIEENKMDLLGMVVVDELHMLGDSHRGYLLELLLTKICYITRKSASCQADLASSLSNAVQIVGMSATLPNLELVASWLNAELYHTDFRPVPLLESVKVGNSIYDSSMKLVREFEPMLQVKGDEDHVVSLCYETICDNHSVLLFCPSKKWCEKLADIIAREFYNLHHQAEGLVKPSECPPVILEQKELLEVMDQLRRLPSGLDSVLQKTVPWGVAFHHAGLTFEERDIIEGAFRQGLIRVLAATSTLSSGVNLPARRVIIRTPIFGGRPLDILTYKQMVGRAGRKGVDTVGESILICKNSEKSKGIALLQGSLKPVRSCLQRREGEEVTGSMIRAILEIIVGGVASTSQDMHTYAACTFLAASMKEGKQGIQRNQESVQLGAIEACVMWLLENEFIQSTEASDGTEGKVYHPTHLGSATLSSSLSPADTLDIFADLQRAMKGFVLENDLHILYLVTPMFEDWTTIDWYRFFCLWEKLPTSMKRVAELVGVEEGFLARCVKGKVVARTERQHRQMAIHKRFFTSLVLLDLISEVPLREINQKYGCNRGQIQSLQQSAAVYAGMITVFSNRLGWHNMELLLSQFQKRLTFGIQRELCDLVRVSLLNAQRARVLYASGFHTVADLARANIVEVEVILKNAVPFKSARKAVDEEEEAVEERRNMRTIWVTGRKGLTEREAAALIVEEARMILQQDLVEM

IC50 ([1]; class symbols) | IC50 ([1]; specific values) | AUC(0-t) [3] | Cmax [3] | SMILES | IC50 [2]
2 to 10 nM | 2.2 nM |  |  | COc1cnc(Cl)cc1-c1cc(C)ncc1C(=O)Nc1nnc(OC[C@H]2COCCO2)s1 [Ref. 1, reference compound] | 5 nM
≤ 2 nM | 0.39 nM |  |  | [2H]C([2H])([2H])O[C@@H](C)c1ccc(CS(=O)(=O)NC(=O)c2ccc(C([2H])([2H])[2H])cc2-c2cc(C(F)F)ncc2OC)cc1 [cpd-16, (S)-2-(2-(Difluoromethyl)-5-methoxypyridin-4-yl)-N-((4-(1-(methoxy-d3)ethyl)benzyl)sulfonyl)-4-(methyl-d3)benzamide] | 2 nM
≤ 2 nM | 1.4 nM | 11700 ng·h/mL | 8300 ng/mL | [2H]C([2H])([2H])O[C@@H](C)c1ccc(CS(=O)(=O)NC(=O)c2ccc(C([2H])([2H])[2H])cc2-c2cc(Cl)ncc2OC)cc1 [cpd-17, (S)-2-(2-Chloro-5-methoxypyridin-4-yl)-N-((4-(1-(methoxy-d3)ethyl)benzyl)sulfonyl)-4-(methyl-d3)benzamide] | 1.8 nM
